Test results: US20220016048A1, “CANNABIDIOL-TYPE CANNABINOID COMPOUND” (GW Research Limited, priority 2018, published 2022)

Test system: sub-chronic PCP-induced deficit in social behaviour in female Lister-Hooded rats
Assay: social interaction test in sub-chronic PCP treated rats
Assay type: in vivo, rat
Protocol: The aim of the current study was to investigate the ability of CBD-C4 (3, 10 & 30 mg/kg IP; 60 min pre-treatment (ptt)) in comparison with risperidone (an atypical antipsychotic; 0.1 mg/kg IP; 60 min pre-treatment), to antagonise a sub-chronic PCP (scPCP; 2 mg/kg IP; twice daily for 7-days; 7 day wash out)-induced deficit in social behaviour in female Lister-Hooded rats.
180 female Lister Hooded rats were used for this experiment, of which 90 were used for the drug study and 90 weight-matched untreated conspecifics were used as the companion rat, and their behaviour was not scored.
Rats were housed in groups of 5 under standard laboratory conditions under a 12-hr light: dark cycle, lights on at 0700 hr. Testing was carried out in the light phase. These studies were carried out in accordance with the Animals Scientific Procedures Act (UK, 1986).
CBD-C4 was used at doses of (3, 10, 30 mg/kg, i.p.) and risperidone was used at a dose of 0.1 mg/kg, i.p.
Rats were randomly assigned to two treatment groups and treated with vehicle, n=15 (distilled water, i.p.) or PCP, n=75 (2 mg/kg, i.p. twice daily for 7-days). This was followed by a 7-day wash out period before the rats were tested following acute treatment with CBD-C4, risperidone or vehicle.
Risperidone (0.1 mg/kg) was dissolved in a minimum volume of acetic acid, made up to volume with distilled water and pH adjusted to 6 with 0.1M NaOH and administered via the i.p. route in a volume of 1 ml/kg, 60 min prior to testing.
CBD-C4 (3, 10 & 30 mg/kg) was dissolved in 2:1:17 (Ethanol:Cremophor EL:Saline 0.9%). CBD-C4 was administered via the i.p. route in a volume of 5 ml/kg, 60 min prior to testing.
The social interaction test was performed in an open-field comprising a square box made of Plexiglas (52×52×31 cm) placed 27 cm above the floor on a moveable trolley. The floor of the box was white with black gridlines forming 9 identical squares on it. All other walls were black. A video camera connected to a video recorder and monitor was positioned above the box. The object used for the test consists of a heavy structure made of metal that cannot be displaced by the animals.
After a 7 day drug-free period, the rats were habituated to the test environment and arena prior to the test day. Habituation consisted of placing all rats from one cage together in the empty test arena for one hour for three days including the day before the test day.
Pairs of rats, weight matched (15-20 g) and unfamiliar to each other, receiving either no treatment (n=90 “conspecific” rats) or different treatments (PCP; n=15 “tested” rats, Vehicle; n=15 “tested” rats, or PCP+drug; n=60 “tested” rats) were placed in the test arena together for 10 minutes and behavior assessed as described below.
An inanimate object such as an unopened drink can was also placed in the centre of the arena to measure any differences in interaction of the test animal with an unfamiliar animal as opposed to an unfamiliar object. After each 10-minute trial, the object and arena were cleaned with 10% alcohol in an attempt to remove traces of any olfactory cues. All testing was carried out under standard room illumination levels (70 cd/m^2).
Behaviour in both trials was recorded on video for subsequent blind scoring. A behavioural scoring software program (Hindsight, Scientific programming services) was used to score the following parameters:
Investigative sniffing behaviour: sniffing the conspecific's snout or parts of the body including the anogenital region.
Following: rat moves after the conspecific i.e. a vehicle treated rat of the same species, around the arena.
Avoidances: actively turning away when approached by the conspecific animal.
Investigation of object: exploration of object placed in centre of the arena.
Locomotor activity is recorded by counting the total number of sectors (i.e. lines) crossed by the test rat.
All data were assessed for normality using D'Agostino and Pearson normality test. […]

[1] = CBD-C4 3, 10, 30 mg/kg, risperidone 0.1 mg/kg i.p., data not shown

C=C(C)[C@@H]1CCC(C)=C[C@H]1c1c(O)cc(CCCC)cc1O [CBD-C4, (1′R,2′R)-4-butyl-5′-methyl-2′-(prop-1-en-2-yl)-1′,2′,3′,4′-tetrahydro-[1,1′-biphenyl]-2,6-diol]
behavioural deficits induced by scPCP (30 mg/kg i.p.): improved all the behavioural deficits
avoidance behaviour compared to the scPCP-treated group (30 mg/kg i.p., 60 min pre-treatment): significantly decreased
following behaviour compared to scPCP (30 mg/kg i.p., 60 min pre-treatment, P<0.001): significantly increased
sniffing behaviour compared to scPCP (30 mg/kg i.p., 60 min pre-treatment, P<0.01): significant increase
line crossings (locomotor activity) [1]: no significant effect
object exploration [1]: no significant effect
any of the parameters measured in the social interaction test (lower doses 3 and 10 mg/kg i.p.): no effect
